Measured values reported in patent publication US9012655B2, “Antimicrobial/adjuvant compounds and methods” (Denouamed, Inc., priority 2011, dated 2015).
In brackets after ≈: the same amount, converted by molar mass.

Assays:
Assay in all cases: MIC panel of challenge pathogens (CLSI)
Type in all cases: cell-based
[1] = tested on: Enterococcus faecium ATCC700221; conditions: Enterococcus faecium ATCC700221
Description: (§1) The inocula for each bacterial strain were prepared by picking 5-10 distinct colonies from the culture plates and suspending them in the appropriate broth as per Clinical and Laboratory Standards Institute (CLSI) guidelines M07-A8, M24-A or M11-A7 as appropriate. The inoculum was resuspended by vigorous shaking on a vortex mixer for 15 s. The turbidity was then adjusted to McFarland standard 0.5 ([…]). The inoculum was further diluted in the appropriate media for MIC tests to give a final inoculum in each well of 2-8×10^5 CFU/ml. MICs were tested in the appropriate broth in accordance with the appropriate CLSI guidelines.
(§2) A stock solution of each compound was prepared at a concentration of 1.28 g/L in DMSO. The stock was further diluted in the appropriate media to give a top starting concentration of 128 mg/L in the assay. 100 μL of the appropriate media, as per CLSI guidelines, was dispensed into each well in columns 2-12. 200 μL of the each compound solution (at 256 mg/L) was dispensed into each well in column 1. 100 μL aliquots were pipetted from column 1 wells and dispensed into column 2 with a multichannel pipette (±2% coefficient of variation) thus diluting two-fold. 100 μL samples were then pipetted from column 2 wells and dispensed into column 3. The process was repeated through to column 10. The final 100 μL of diluted drug from column 10 was then discarded. Row 11 acted as a positive control (no compound, but organisms added), Row 12 acted as a negative control (no compound, and no organisms added).
(§3) 100 μL of the appropriate inoculum suspension in the appropriate media, as per CLSI guidelines, was added to the appropriate wells. […] All plates were incubated in the dark under aerobic or anaerobic conditions at 30-37° C. for 24-48 hours, according to the appropriate CLSI guideline. Plates were read visually 24-48 hours post inoculation. Endpoints of 100% inhibition were determined (CLSI interpretation endpoints following visual examination).
(§4) MIC50, MIC80, and 100% inhibition results are reported below in μg/mL in the following Tables, indicating each compound tested against a given species and strain: […]

[2] = tested on: Staphylococcus aureus AUR60 7005; conditions: AUR607005, Staphylococcus aureus AUR60 7005
Description: as §1, §2, §3, §4

[3] = tested on: Staphylococcus aureus EUP MRSA002; conditions: EUPMRSA002, Staphylococcus aureus EUP MRSA002
Description: as §1, §2, §3, §4

Bacillus cereus NCTC6349 = conditions: Bacillus cereus NCTC6349
Description: as §1, §2, §3, §4

[4] = tested on: Enterococcus faecalis ATCC29212; conditions: Enterococcus faecalis ATCC29212
Description: as §1, §2, §3, §4

[5] = tested on: Staphylococcus aureus EUP SAU040; conditions: EUPSAU040, Staphylococcus aureus EUP SAU040
Description: as §1, §2, §3, §4

[6] = tested on: Enterococcus faecalis ATCC51299; conditions: Enterococcus faecalis ATCC51299
Description: as §1, §2, §3, §4

[7] = tested on: Staphylococcus aureus NRS384; conditions: Staphylococcus aureus NRS384
Description: as §1, §2, §3, §4

[8] = tested on: Staphylococcus aureus EUP MRSA004; conditions: EUPMRSA004, Staphylococcus aureus EUP MRSA004
Description: as §1, §2, §3, §4

[9] = tested on: Staphylococcus aureus AUR58 7005; conditions: AUR587005, Staphylococcus aureus AUR58 7005
Description: as §1, §2, §3, §4

[10] = tested on: Staphylococcus aureus NRS382; conditions: Staphylococcus aureus NRS382
Description: as §1, §2, §3, §4

[11] = tested on: Staphylococcus epidermidis NRS122; conditions: Staphylococcus epidermidis NRS122
Description: as §1, §2, §3, §4

[12] = tested on: Staphylococcus aureus NRS2 (ATCC700698); conditions: Staphylococcus aureus NRS2 (ATCC700698)
Description: as §1, §2, §3, §4

[13] = tested on: Staphylococcus aureus AUR131 007035; conditions: AUR131007035, Staphylococcus aureus AUR131 007035
Description: as §1, §2, §3, §4

[14] = tested on: Staphylococcus aureus NRS1 (ATCC700699); conditions: Staphylococcus aureus NRS1 (ATCC700699)
Description: as §1, §2, §3, §4

[15] = tested on: Staphylococcus aureus NRS383; conditions: Staphylococcus aureus NRS383
Description: as §1, §2, §3, §4

[16] = tested on: Staphylococcus epidermidis NRS7; conditions: Staphylococcus epidermidis NRS7
Description: as §1, §2, §3, §4

[17] = tested on: Staphylococcus aureus ATCC43300; conditions: Staphylococcus aureus ATCC43300
Description: as §1, §2, §3, §4

[18] = tested on: Staphylococcus aureus AUR59 7005; conditions: AUR597005, Staphylococcus aureus AUR59 7005
Description: as §1, §2, §3, §4

Cc1ccc(Cl)cc1-c1cc(-c2nnn[nH]2)sc1-c1cc(Cl)ccc1C [DNM0508, 5-(4,5-Bis(5-chloro-2-methylphenyl)thiophen-2-yl)-1H-tetrazole]
MIC ([1]; read-out: 100% inhibition): 1 µg/mL (≈ 2.49 µM)
MIC50 ([1]; read-out: MIC50 (50%)): 1 µg/mL (≈ 2.49 µM)
MIC80 ([1]; read-out: MIC80 (80%)): 1 µg/mL (≈ 2.49 µM)
MIC ([2]; read-out: 100% inhibition): 1 µg/mL (≈ 2.49 µM)
MIC50 ([2]; read-out: MIC50 (50%)): 1 µg/mL (≈ 2.49 µM)
MIC80 ([2]; read-out: MIC80 (80%)): 1 µg/mL (≈ 2.49 µM)
MIC ([3]; read-out: 100% inhibition): 1 µg/mL (≈ 2.49 µM)
MIC50 ([3]; read-out: MIC50 (50%)): 0.5 µg/mL (≈ 1.25 µM)
MIC80 ([3]; read-out: MIC80 (80%)): 1 µg/mL (≈ 2.49 µM)
MIC (Bacillus cereus NCTC6349; read-out: 100% inhibition): 0.5 µg/mL (≈ 1.25 µM)
MIC50 (Bacillus cereus NCTC6349; read-out: MIC50 (50%)): 0.5 µg/mL (≈ 1.25 µM)
MIC80 (Bacillus cereus NCTC6349; read-out: MIC80 (80%)): 0.5 µg/mL (≈ 1.25 µM)
MIC ([4]; read-out: 100% inhibition): 2 µg/mL (≈ 4.98 µM)
MIC50 ([4]; read-out: MIC50 (50%)): 2 µg/mL (≈ 4.98 µM)
MIC80 ([4]; read-out: MIC80 (80%)): 2 µg/mL (≈ 4.98 µM)
MIC ([5]; read-out: 100% inhibition): 1 µg/mL (≈ 2.49 µM)
MIC50 ([5]; read-out: MIC50 (50%)): 1 µg/mL (≈ 2.49 µM)
MIC80 ([5]; read-out: MIC80 (80%)): 1 µg/mL (≈ 2.49 µM)
MIC ([6]; read-out: 100% inhibition): 2 µg/mL (≈ 4.98 µM)
MIC50 ([6]; read-out: MIC50 (50%)): 2 µg/mL (≈ 4.98 µM)
MIC80 ([6]; read-out: MIC80 (80%)): 2 µg/mL (≈ 4.98 µM)
MIC ([7]; read-out: 100% inhibition): 1 µg/mL (≈ 2.49 µM)
MIC50 ([7]; read-out: MIC50 (50%)): 1 µg/mL (≈ 2.49 µM)
MIC80 ([7]; read-out: MIC80 (80%)): 1 µg/mL (≈ 2.49 µM)
MIC ([8]; read-out: 100% inhibition): 1 µg/mL (≈ 2.49 µM)
MIC50 ([8]; read-out: MIC50 (50%)): 1 µg/mL (≈ 2.49 µM)
MIC80 ([8]; read-out: MIC80 (80%)): 1 µg/mL (≈ 2.49 µM)
MIC ([9]; read-out: 100% inhibition): 1 µg/mL (≈ 2.49 µM)
MIC50 ([9]; read-out: MIC50 (50%)): 1 µg/mL (≈ 2.49 µM)
MIC80 ([9]; read-out: MIC80 (80%)): 1 µg/mL (≈ 2.49 µM)
MIC ([10]; read-out: 100% inhibition): 1 µg/mL (≈ 2.49 µM)
MIC50 ([10]; read-out: MIC50 (50%)): 1 µg/mL (≈ 2.49 µM)
MIC80 ([10]; read-out: MIC80 (80%)): 1 µg/mL (≈ 2.49 µM)
MIC ([11]; read-out: 100% inhibition): 8 µg/mL (≈ 19.9 µM)
MIC50 ([11]; read-out: MIC50 (50%)): 4 µg/mL (≈ 9.97 µM)
MIC80 ([11]; read-out: MIC80 (80%)): 8 µg/mL (≈ 19.9 µM)
MIC ([12]; read-out: 100% inhibition): 1 µg/mL (≈ 2.49 µM)
MIC50 ([12]; read-out: MIC50 (50%)): 0.5 µg/mL (≈ 1.25 µM)
MIC80 ([12]; read-out: MIC80 (80%)): 1 µg/mL (≈ 2.49 µM)
MIC ([13]; read-out: 100% inhibition): 1 µg/mL (≈ 2.49 µM)
MIC50 ([13]; read-out: MIC50 (50%)): 1 µg/mL (≈ 2.49 µM)
MIC80 ([13]; read-out: MIC80 (80%)): 1 µg/mL (≈ 2.49 µM)
MIC ([14]; read-out: 100% inhibition): 1 µg/mL (≈ 2.49 µM)
MIC50 ([14]; read-out: MIC50 (50%)): 0.5 µg/mL (≈ 1.25 µM)
MIC80 ([14]; read-out: MIC80 (80%)): 1 µg/mL (≈ 2.49 µM)
MIC ([15]; read-out: 100% inhibition): 1 µg/mL (≈ 2.49 µM)
MIC50 ([15]; read-out: MIC50 (50%)): 1 µg/mL (≈ 2.49 µM)
MIC80 ([15]; read-out: MIC80 (80%)): 1 µg/mL (≈ 2.49 µM)
MIC ([16]; read-out: 100% inhibition): 1 µg/mL (≈ 2.49 µM)
MIC50 ([16]; read-out: MIC50 (50%)): 0.5 µg/mL (≈ 1.25 µM)
MIC80 ([16]; read-out: MIC80 (80%)): 0.5 µg/mL (≈ 1.25 µM)
MIC ([17]; read-out: 100% inhibition): 1 µg/mL (≈ 2.49 µM)
MIC50 ([17]; read-out: MIC50 (50%)): 1 µg/mL (≈ 2.49 µM)
MIC80 ([17]; read-out: MIC80 (80%)): 1 µg/mL (≈ 2.49 µM)
MIC ([18]; read-out: 100% inhibition): 1 µg/mL (≈ 2.49 µM)
MIC50 ([18]; read-out: MIC50 (50%)): 1 µg/mL (≈ 2.49 µM)
MIC80 ([18]; read-out: MIC80 (80%)): 1 µg/mL (≈ 2.49 µM)
